The source of these data is US20230130102A1, “Na/K-ATPase LIGANDS AND USE THEREOF FOR TREATMENT OF CANCER” (Marshall University Research Corporation, priority 2019, published 2023).

One assay relates to PY17 cells. The experiment in a line: basal ERK phosphorylation in PY17 cells. The assay is classed as cell-based, pig. The procedure:
Western blot, Immunoprecipitation and Immunostaining. Cells were grown to 100% confluency and Western blot were performed as described before. Images were quantified with ImageJ software from NIH. Immunoprecipitation studies were performed as described before. α1 NKA immunostaining was performed by growing cells on sterilized coverslips in 6 well tissue culture plates and permeabilization/fixation with ice-cold methanol followed by blocking with 5% horse serum and 0.1% Triton X-100 in 1× Phosphate buffered saline (PBS) for 30 minutes. Coverslips were then stained with an anti-α1 NKA antibody (Millipore, Cat #05-369) at 1:100 dilution in 1% BSA (Bovine Serum Albumin) containing 1×PBS solution for overnight. Next day after three washes, coverslips were stained with Alexa Fluor 488 conjugated anti-mouse secondary antibody (Thermo-Fisher) for 1 hour, washed extensively and then imaged using a fluorescent microscope with GFP filter or confocal microscope (LEICA-DMIRE2). E-cadherin and occludin immunostaining was performed in a similar manner. Phospho-Src, phospho ERK1/2 immunostaining were performed as described before and images were taken with a LEICA DMIRE2 confocal microscope. […]

The test system of the next assay is parental C4-2 cells. The assay can be described thus: 3D culture spheroid growth, C4-2. Type of assay: cell-based, human. Particulars: parental C4-2, 0.1-2 μM, Day 1-7. As for the experimental part: 3D culture-spheroid invasion assay. Cells were trypsinized gently (0.05% Trypsin-EDTA) and diluted at 1000 cells in 20 μl of full serum media for DU145 and C4-2 derived sub-clones or 500 cells in 20 ul for PC3 cells and allowed to form spheroids using hanging drop technique for 3 days, as described previously. Generated spheroids were then embedded into 3D matrix (not yet solidified at the time of experiment), as described in the previous section, on top of a 1% solidified agarose coating in 48 well plates. Spheroids were monitored from day 1 to different time points and images were taken using a phase contrast microscope fitted with camera, at same settings. Spheroid growth or invasion area was quantified using ImageJ software from NIH. The following formulas were used for quantitation of spheroids:
Spheroid growth=(Spheroid area at Day 3 or 7-Spheroid area at 16 hours)/Spheroid area at 16 hours

A further assay relates to subclone 2 cells. The assay can be described thus: Boyden chamber migration assay. The assay is classed as cell-based, human. As for the experimental part: Boyden chamber assay. Different sub-clones were grown up to 100% confluency and then gently trypsinized with 0.05% trypsin-EDTA and 100,000 cells were plated in upper chamber of a […] containing transwell filter with 0.5% FBS containing media. Full serum (10% FBS) containing media was added to the lower chamber as chemoattractant. After 16 hours, a colorimetric assay was used to determine the migration of cells to the lower side of the filter, with absorbance read at 590 nm. Briefly, lower sides of the transwell were washed with 1×PBS and then fixed with ice cold methanol for 10 minutes. After gentle washes with 1×PBS, lower side of the filter were stained with Crystal violet solution (0.5% Crystal Violet in 20% Ethanol), washed and the stain was extracted with methanol. Result was normalized against migration of sub-clone 5 cells. For cell migration in presence of pharmacological compounds, cells at 100% confluency were pretreated for 24 hours with or without MB5, PP2 (Sigma-Aldrich, Catalogue No P0042) or FAK inhibitor I (Millipore, Catalogue No. 324877) and then assay was performed as described above.

In another assay the target is T1, YFP-tagged α1 NKA (Rattus norvegicus, UniProt P06685).
T1 construct: expressed in transfected cells; host or cells: YFP-α1-TCN cells
The assay can be described thus: ouabain-induced α1 NKA endocytosis in YFP-α1-TCN cells. The note with it: YFP-α1-TCN cells, pretreatment. The assay is classed as cell-based. The procedure:
(§1) It is appreciated that ouabain induces Src/ERK activation (increased protein phosphorylation) of LLC-PK1 cells by binding to α1 NKA and thereby initiates a signaling cascade which results in the endocytosis of the α1 NKA to terminate the signaling.
α1 NKA endocytosis assay. Endocytosis assay was performed as described before.
Characterization of MB5 activity on the NKA receptor function known as the NKA/Src binary receptor mechanism was conducted in a pig kidney epithelial cells (LLC-PK1)-based platform using immunostaining and Western blot analyses. […] The change of NKA conformation that occurs upon binding of agonists such as ouabain, results in the release and activation of the Src kinase domain from the “Naktide” site of NKA CD3, while the other interaction (constitutive) persists between NKA CD2 and the SH2 domain of Src.

The next assay has as its system PC3 cells. The experiment in a line: Western blot and cell fractionation in PC3 cells. Type of assay: cell-based, human. Particulars: PC3, 72-120 hours of treatment. As for the experimental part: Western blot, Immunoprecipitation and Immunostaining. Cells were grown to 100% confluency and Western blot were performed as described before. Images were quantified with ImageJ software from NIH. Immunoprecipitation studies were performed as described before. α1 NKA immunostaining was performed by growing cells on sterilized coverslips in 6 well tissue culture plates and permeabilization/fixation with ice-cold methanol followed by blocking with 5% horse serum and 0.1% Triton X-100 in 1× Phosphate buffered saline (PBS) for 30 minutes. Coverslips were then stained with an anti-α1 NKA antibody (Millipore, Cat #05-369) at 1:100 dilution in 1% BSA (Bovine Serum Albumin) containing 1×PBS solution for overnight. Next day after three washes, coverslips were stained with Alexa Fluor 488 conjugated anti-mouse secondary antibody (Thermo-Fisher) for 1 hour, washed extensively and then imaged using a fluorescent microscope with GFP filter or confocal microscope (LEICA-DMIRE2). E-cadherin and occludin immunostaining was performed in a similar manner. Phospho-Src, phospho ERK1/2 immunostaining were performed as described before and images were taken with a LEICA DMIRE2 confocal microscope.

The target of another assay is T2, purified pig kidney NKA (Sus scrofa, UniProt P05024).
T2 construct: Na/K-ATPase activity assay of MB5 with purified pig kidney enzyme; from tissue; host or cells: pig kidney
The assay can be described thus: Na/K-ATPase (ATPase) activity assay. Type of assay: biochemical. The procedure: as §1
ATPase activity assay. ATPase activity assay was performed as previously described.
As archetypal agonists of NKA receptor function, ouabain and other CTS stimulate cellular signaling by activating α1 NKA/Src signalosome complex, which results in its endocytosis. It was reasoned that compounds that inhibit CTS induced signaling could function as inverse agonists of this signalosome complex and prevent α1 NKA endocytosis. A group of hydroxyxanthones were thus tested that were identified as a new class of Na/K-ATPase ligands using a high throughput in vitro screening platform and a library of 2600 structurally diverse chemicals.

Each structure is given as a SMILES string. Several values for one entry are separate records, joined by “and”; a condition that tells them apart may be missing. Identical values can stand only once. Entries after “also recorded” stand apart in the source; their conditions may differ.

Turning to `O=c1c2cccc(O)c2oc2c(O)c(O)ccc12` [MB5], the “basal ERK phosphorylation” value with PY17 cells is “inhibited ERK phosphorylation in a dose-dependent manner”. In addition, in the assay with parental C4-2 cells, the spheroid growth result is listed as “did not significantly affect spheroid growth”. Besides, the “inhibition of migration of cancer cells” value in the assay on subclone 2 cells (Boyden chamber assay, clone 2) is “about 50%”. Besides, the “cell migration compared with PP2 and FAK inhibitor” value in the assay on subclone 2 cells (clone 2) is “as effectively as other kinase inhibitors”. In the assay on subclone 2 cells (pretreatment with 100 nM for 24 hours, subclone 2), the “reduction of cell migration” value turned out to be 50%. Also, the “inhibition of ouabain-induced α1 NKA endocytosis” value on YFP-tagged α1 NKA is recorded as “able to inhibit ouabain-induced α1 NKA endocytosis; also recorded: potent inverse agonist of ouabain-induced α1 NKA endocytosis; also recorded: inhibited ouabain-induced α1 NKA endocytosis in a concentration dependent manner”. Further, in the assay with PC3 cells, the EMT phenotype result is on record as “reversed the EMT phenotype”, the Src activation entry is on record as “decreased Src activation” and the “α1 NKA expression” value is “significantly increased α1 NKA expression”. Moreover, the “inhibition of NKA activity” value against purified pig kidney NKA (about 1 nM to 100 nM) was about 25%. Moreover, on purified pig kidney NKA (biphasic NKA inhibition curve), the “high affinity component, share of Na/K-ATPase activity” value stood at 20%. Besides, the IC50 on purified pig kidney NKA (purified pig kidney enzyme, low affinity component of biphasic curve) was ~10 µM and 10 µM. The “inhibition of NKA activity” value against purified pig kidney NKA (~10 μM) is about 50%.

What is called IC50 is the point on the concentration scale where inhibition reaches its midpoint.
